Results: publication PMC8405091, “Microwave-assisted Phospha-Michael addition reactions in the 13α-oestrone series and in vitro antiproliferative properties” (Journal of Enzyme Inhibition and Medicinal Chemistry, 2021)
Where two headings read alike, the source gives them in different places.

Tests used:
[1] = tested on: UPCI-SCC-131 cells; test: MTT antiproliferative assay, UPCI-SCC-131; format: cell-based, human; settings: Homo sapiens; for inhibition at 10 µM / inhibition at 30 µM: read-out: Growth inhibition, % ± SEM; for inhibition at 10 µM: UPCI-SCC-131, 10 μM; for inhibition at 30 µM: UPCI-SCC-131, 30 μM; for IC50: read-out: calculated IC50 value
Description: (§1) The antiproliferative properties of the newly synthesized compounds (9–20) and their starting materials (4 and 5) were determined on a panel of human adherent cancer cell lines. MCF-7, MDA-MB-231 and T47D were isolated from breast cancers differing in biochemical background, while A2780 cells were isolated from ovarian cancer. HeLa and SiHa are cervical cancer cell lines positive for HPV-18 and HPV-16, respectively, while C33-A cervical cancer cells are negative for HPV. Moreover, two oropharyngeal cancer cell lines were also utilized: the HPV-negative UPCI-SCC-131 and HPV-16 positive UPCI-SCC-154. The cancer selectivity of compounds was tested on the non-cancerous mouse embryo fibroblast cell line NIH/3T3. All cell lines were purchased from European Collection of Cell Cultures (ECCAC, Salisbury, UK) exception for SiHa and C33-A (American Tissue Culture Collection, Manassas, VA, USA) and HN-SCC-131 and UPCI-SCC-154 (German Collection of Microorganisms and Cell Cultures GmbH, Braunschweig, Germany). Cells were cultivated in minimal essential medium supplemented with 10% fetal bovine serum, 1% non-essential amino acids and an antibiotic–antimycotic mixture. The medium of oropharyngeal cancer cells additionally contained 2.0 mM L-glutamine. All media and supplements were obtained from Lonza Group Ltd., Basel, Switzerland. Near-confluent cancer cells were seeded onto a 96-well microplate at a density of 5,000 cells/well, except for C33-A which were seeded at 10,000/well. After overnight standing, new medium containing the tested compounds at 10 and 30 µM final concentration was added. After incubation for 72 h at 37 °C in humidified air containing 5% CO2, the living cells were assayed by the addition of 20 μL of 5 mg/ml 3-(4,5-dimethylthiazol-2-yl)-2,5-diphenyltetrazolium bromide (MTT) solution. MTT was converted by intact mitochondrial reductase and precipitated as purple crystals during a 4-h contact period. The medium was next removed and the precipitated formazan crystals were dissolved in 100 μL of DMSO during a 60-min period of shaking at 37 ^оC.
(§2) All in vitro experiments were carried out twice with five parallels. Stock solutions of the tested substances (10 mM) were prepared in DMSO. […] Cisplatin (Ebewe Pharma GmbH, Unterach, Austria) was used as positive control.

[2] = tested on: UPCI-SCC-154 cells; test: MTT antiproliferative assay, UPCI-SCC-154; format: cell-based, human; settings: Homo sapiens; for inhibition at 10 µM / inhibition at 30 µM: read-out: Growth inhibition, % ± SEM; for inhibition at 10 µM: UPCI-SCC-154, 10 μM; for inhibition at 30 µM: UPCI-SCC-154, 30 μM; for IC50: read-out: calculated IC50 value
Description: as §1, §2

[3] = tested on: HeLa cells; test: MTT antiproliferative assay, HeLa; format: cell-based, human; settings: Homo sapiens, 72 h; for IC50: read-out: calculated IC50 value
Description: as §1, §2

[4] = tested on: SiHa cells; test: MTT antiproliferative assay, SiHa; format: cell-based, human; settings: Homo sapiens, 72 h; for IC50: read-out: calculated IC50 value
Description: as §1, §2

[5] = tested on: C33-A cells; test: MTT antiproliferative assay, C33-A; format: cell-based, human; settings: Homo sapiens, C-33-A, 72 h; for IC50: read-out: calculated IC50 value
Description: as §1, §2

[6] = tested on: A2780 cells; test: MTT antiproliferative assay, A2780; format: cell-based, human
Description: as §1, §2

[7] = tested on: MCF-7 cells; test: MTT antiproliferative assay, MCF-7; format: cell-based, human; settings: Homo sapiens; for inhibition at 10 µM / inhibition at 30 µM: read-out: Growth inhibition, % ± SEM, 72 h; for inhibition at 10 µM: MCF-7, 10 μM; for inhibition at 30 µM: MCF-7, 30 μM; for IC50: read-out: calculated IC50 value
Description: as §1, §2

[8] = tested on: MDA-MB-231 cells; test: MTT antiproliferative assay, MDA-MB-231; format: cell-based, human
Description: as §1, §2

[9] = tested on: T47D cells; test: MTT antiproliferative assay, T47D; format: cell-based, human; settings: Homo sapiens, 72 h; for IC50: read-out: calculated IC50 value
Description: as §1, §2

[10] = tested on: non-cancerous mouse embryo fibroblast (NIH/3T3) cells; test: MTT assay on non-cancerous fibroblasts (tumour selectivity); format: cell-based; settings: Mus musculus; for inhibition at 10 µM / inhibition at 30 µM: read-out: Growth inhibition, % ± SEM; for IC50: read-out: calculated IC50 value
Description: as §1, §2

[11] = tested on: panel of human adherent cancer cell lines; test: MTT antiproliferative assay, whole panel of cell lines; format: cell-based; settings: read-out: IC50 (span over the panel)
Description: as §1, with “^оC. […]” for “^оC.”

[12] = read-out: Growth inhibition, % ± SEM, 10 μM
[13] = read-out: Growth inhibition, % ± SEM, 30 μM
[14] = Homo sapiens, MDA-MB-231, 72 h, read-out: Growth inhibition; % ± SEM
[15] = 10 μM, read-out: Growth inhibition, % ± SEM
[16] = 30 μM, read-out: Growth inhibition, % ± SEM

COc1ccc2c(c1)CC[C@@H]1[C@@H]2CC[C@@]2(C)C(=O)[C@H](CP(=O)(c3ccc(C)cc3)c3ccc(C)cc3)C[C@@H]12 [Compound 13, [(3-methoxy-17-oxo-13α-oestra-1,3,5(10)-trien-16α-yl)methyl]di-p-tolylphosphine oxide]
inhibition at 10 µM ([1]; 72 h, 72 h): 29.9 ± 1.21%
inhibition at 30 µM ([1]; 72 h, 72 h): 97.02 ± 0.43%
IC50 ([1]; 72 h): 12.3 µM
inhibition at 10 µM ([2]; 72 h, 72 h): < 20%
inhibition at 30 µM ([2]; 72 h, 72 h): 75.9 ± 1.93%
IC50 ([2]; 72 h): 21.5 µM
inhibition at 10 µM [3, 12]: < 20%
inhibition at 30 µM [3, 13]: 95.69 ± 0.69%
IC50 [3]: 14.3 µM
inhibition at 10 µM [4, 12]: < 20%
inhibition at 30 µM [4, 13]: 92.9 ± 0.85%
IC50 [4]: 13.7 µM
inhibition at 10 µM ([5]; read-out: Growth inhibition, % ± SEM, C33-A, 10 μM): < 20%
inhibition at 30 µM ([5]; read-out: Growth inhibition, % ± SEM, C33-A, 30 μM): 96.31 ± 0.46%
IC50 [5]: 14.5 µM
inhibition at 10 µM ([6]; Homo sapiens, A2780, 72 h, read-out: Growth inhibition; % ± SEM, A2780, 10 μM, 72 h): < 20%
inhibition at 30 µM ([6]; Homo sapiens, A2780, 72 h, read-out: Growth inhibition; % ± SEM, A2780, 30 μM, 72 h): 97.77 ± 0.35%
IC50 ([6]; Homo sapiens, A2780, 72 h, read-out: calculated IC50 value): 23.8 µM
inhibition at 10 µM ([7]; MCF7, 72 h): < 20%
inhibition at 30 µM ([7]; MCF7, 72 h): 84.9 ± 2.54%
IC50 ([7]; MCF7, 72 h): 14.8 µM
inhibition at 10 µM [8, 14]: < 20%
inhibition at 30 µM [8, 14]: 95.56 ± 0.67%
IC50 ([8]; Homo sapiens, MDA-MB-231, 72 h, read-out: calculated IC50 value): 25.8 µM
inhibition at 10 µM [9, 12]: 26.7 ± 1.95%
inhibition at 30 µM [9, 13]: 89.82 ± 0.68%
IC50 [9]: 13.6 µM
inhibition at 10 µM ([10]; NIH3T3, 72 h): < 20%
inhibition at 30 µM ([10]; NIH3T3, 72 h): 89.76 ± 0.49%
IC50 ([10]; NIH3T3, 72 h): 19.3 µM
IC50 [11]: 10 to 25 µM

C=C1C[C@H]2[C@@H]3CCc4cc(OC)ccc4[C@H]3CC[C@@]2(C)C1=O [Compound 4, 3-methoxy-16-methylene derivative]
inhibition at 10 µM ([1]; 72 h): 99.8 ± 0.36%
inhibition at 30 µM ([1]; 72 h): 99.88 ± 0.39%
IC50 ([1]; UPCI-SCC-131, 72 h): 3.17 µM
inhibition at 10 µM ([2]; 72 h): 97.3 ± 1.1%
inhibition at 30 µM ([2]; 72 h): 97.81 ± 0.65%
IC50 ([2]; UPCI-SCC-154, 72 h): 5.15 µM
inhibition at 10 µM [3, 15]: 85.1 ± 2.44%
inhibition at 30 µM [3, 16]: 99.43 ± 0.28%
IC50 [3]: 4.45 µM
inhibition at 10 µM [4, 15]: 97.44 ± 0.54%
inhibition at 30 µM [4, 16]: 99.28 ± 0.42%
IC50 [4]: 3.31 µM
inhibition at 10 µM ([5]; C33-A, 10 μM, read-out: Growth inhibition, % ± SEM): 99.57 ± 0.61%
inhibition at 30 µM ([5]; C33-A, 30 μM, read-out: Growth inhibition, % ± SEM): 99.55 ± 0.39%
IC50 ([5]; C33-A): 3.6 µM
IC50 ([6]; Homo sapiens, A2780, 72 h; read-out: calculated IC50 value): 6.24 µM
inhibition at 10 µM ([6]; Homo sapiens; A2780, 10 μM, 72 h; read-out: Growth inhibition; % ± SEM): 96.9 ± 1.52%
inhibition at 30 µM ([6]; Homo sapiens; A2780, 30 μM, 72 h; read-out: Growth inhibition; % ± SEM): 100.5 ± 0.22%
inhibition at 10 µM ([7]; MCF7): 99.52 ± 0.51%
inhibition at 30 µM ([7]; MCF7): 99.83 ± 0.44%
IC50 ([7]; MCF7, MCF-7, 72 h): 3.7 µM
IC50 ([8]; Homo sapiens, MDA-MB-231, 72 h; read-out: calculated IC50 value): 3.97 µM
inhibition at 10 µM ([8]; Homo sapiens; MDA-MB-231, 10 μM, 72 h; read-out: Growth inhibition; % ± SEM): 99.97 ± 0.71%
inhibition at 30 µM ([8]; Homo sapiens; MDA-MB-231, 30 μM, 72 h; read-out: Growth inhibition; % ± SEM): 94.6 ± 2.26%
inhibition at 10 µM [9, 15]: 99.68 ± 0.74%
inhibition at 30 µM [9, 16]: 99.92 ± 0.71%
IC50 [9]: 3.46 µM
inhibition at 10 µM ([10]; NIH3T3, NIH/3T3, 10 μM, 72 h): 101.1 ± 0.67%
inhibition at 30 µM ([10]; NIH3T3, NIH/3T3, 30 μM, 72 h): 100.9 ± 0.71%
IC50 ([10]; NIH3T3, NIH/3T3, 72 h): 2.79 µM
